These results are taken from US4021481A, “Amido derivatives of 2,4,6-triiodobenzoic acids containing at least one N-hydroxyalkyl and at least two hydroxyl groups” (Nyegaard & Co. A/S, priority 1969, dated 1977).

In series [1] the test system is mice. Nature of the series: Intravenous toxicity in mice (LD50). In kind it is in vivo. The following applies: concentration administered 300 mgI/ml. An excerpt: (§1) As indicated above, the new non-ionic compounds according to the invention have shown markedly low levels of toxicity, especially in intracerebral tests. […] It will be seen that all the new compounds listed are very much better than the known compounds in the intracerebral test.
(§2) Intravenous and Intracerebral Toxicity
(§3) Most of the compounds were so inert that it was not physically possible to inject sufficient substance to kill 50% of the mice and in such cases only a minimum value can be given for the LD50.

The test system of series [2] is mice. The series can be described thus: Intracerebral toxicity in mice (LD50). The series is classed as in vivo.
Description: as §1, §2, §3

Series [3] in a line: Solubility in water. The following applies: water, room temperature; read-out: Solubility in water at room temperature (class). The series is classed as physicochemical.
Series [4] can be described thus: Osmolality of aqueous solution. The series is classed as physicochemical. The following applies: 37° C.; 300 mg I/ml. How it is done: As indicated above, the compounds according to the invention are of low osmolality as compared to conventional ionic contrast agents and many of the compounds show even lower osmolality values than would have been expected. The observed osmolality in each case would be expected to be about 0.8 mol/kg but compounds 3, 33, 35, 44 and 11 identified in Table I have shown osmolality values of 0.47, 0.48, 0.61, 0.53 and 0.48 mol/kg respectively at 37° C. (300 mg I ml). The last two compounds in Table 2, which are ionic compounds shown for comparison, have osmolality values of about 1.6 mol/kg.

The conditions of series [5]: subarachnoideal space; in words; cited from earlier work.
Series [6] can be described thus: Viscosity. In kind it is physicochemical. The following applies: 20° C.; 300 mgI/ml. The source says:
However, the preferred compounds listed above in relation to the myelographic field are also very useful in cardiovascular visualisation due to their extremely good tolerance.

Where [7] appears, read: 300 mgI/ml, dose 0.10 ml/20 g mouse.
[8] abbreviates: 300 mgI/ml, dose 0.05 ml/20 g mouse.

For the compound `CC(=O)Nc1c(I)c(C(=O)N[C@H]2C(O)O[C@H](CO)[C@@H](O)[C@@H]2O)c(I)c(N(C)C(C)=O)c1I` (stereo partly drawn) [Compound 11, N-(N-methyl-3,5-diacetamido-2,4,6-triiodobenzoyl)-glucosamine], in series [1], the “Intravenous LD50” value was 15000 mgI/kg. In addition, the “Intracerebral LD50” value in series [2] (setting [7]) is more than 1500 mgI/kg. Also, the solubility (commonly how much of the substance goes into solution per volume) in series [3] is more than 500 mg/mL. For the same compound, the Osmolality in series [4] was found to be 0.48 mol/kg.

Turning to `CC(=O)N(C)c1c(I)c(C(=O)N(C)C[C@H](O)[C@@H](O)[C@H](O)[C@H](O)CO)c(I)c(N(CCO)C(C)=O)c1I` [Compound 35, N-[3-N-methylacetamido-5-N-(β-hydroxyethyl)-acetamido-2,4,6-triiodobenzoyl]-N-methylglucamine], the “Intracerebral LD50” value in series [2] (setting [8]) is reported as more than 750 mgI/kg; in series [2] (400 mgI/ml, dose 0.10 ml/20 g mouse), more than 2000 mgI/kg. In series [3], the solubility was more than 500 mg/mL. This compound also came in with an Osmolality in series [4] of 0.61 mol/kg.

On to `O=S(=O)(O)CI` [iodomethane sulphonate], for which, in series [5], the Absorption entry is listed as “quite rapidly absorbed”; the Toxicity in use entry is “too toxic for cisternography, ventriculography and cervical or thoracic myelography”.

As for `CC(=O)Nc1c(I)c(C(=O)NC[C@H](O)[C@@H](O)[C@H](O)[C@H](O)CO)c(I)c(N(C)C(C)=O)c1I` [Compound 33, N-(N-methyl-3,5-diacetamido-2,4,6-triiodobenzoyl)-D-glucamine], in series [1], the “Intravenous LD50” value is recorded as 14250 mgI/kg. Also, the entries for the “Intracerebral LD50” value in series [2] (setting [8]) and in series [2] (setting [7]) were more than 750 mgI/kg and more than 1500 mgI/kg, respectively. Besides, the solubility in series [3] was more than 500 mg/mL. This compound returned an Osmolality in series [4] of 0.48 mol/kg.

Take `CC(=O)Nc1c(I)c(C(=O)N(C)C[C@H](O)[C@@H](O)[C@H](O)[C@H](O)CO)c(I)c(N(C)C(C)=O)c1I` [Compound 3, N-(N-methyl-3,5-diacetamido-2,4,6-triiodobenzoyl)-N-methyl glucamine]: the “Intravenous LD50” value in series [1] is recorded as 6000 mgI/kg. The “Intracerebral LD50” value in series [2] (setting [8]) is given as more than 750 mgI/kg. Further, the solubility in series [3] was more than 500 mg/mL. Also, the Osmolality in series [4] is 0.47 mol/kg.

As to `CC(=O)Nc1c(I)c(C(=O)N(C)CC(O)CO)c(I)c(C(=O)N(C)CC(O)CO)c1I` (stereo not drawn) [Compound 9, 3,5-Bis-[N-(2,3-dihydroxypropyl)-N-methylcarbomoyl]-2,4,6-triiodoacetanilide], the “Intravenous LD50” value in series [1] is listed as 13500 mgI/kg. Besides, the “Intracerebral LD50” value in series [2] (setting [7]) was “about 1500 mgI/kg”. Further, in series [3], the solubility was more than 500 mg/mL. Further, in series [6], the Viscosity stood at 7.1 cp.

In the case of `CC(=O)N(CCO)c1c(I)c(C(=O)N(C)CC(O)CO)c(I)c(N(CCO)C(C)=O)c1I` (stereo not drawn) [Compound 44], the “Intracerebral LD50” value is more than 750 mgI/kg in series [2] (setting [8]) and more than 1500 mgI/kg in series [2] (setting [7]). Also, the solubility in series [3] is more than 500 mg/mL. Further, in series [4], the Osmolality worked out at 0.53 mol/kg.
